Assays:
Rattus norvegicus [1] = organism: Rattus norvegicus; assay: Inhibition of carnitine-dependent oxidation of [1-14C]palmitate to 14CO2 in rat liver mitochondria was measured in vitro at 2*10e-1 mM concentration; assay type: functional
Rattus norvegicus [2] = organism: Rattus norvegicus; assay: Inhibition of carnitine-dependent oxidation of [1-14C]palmitate to 14CO2 in rat liver mitochondria was measured in vitro at 2 mM concentration
Rattus norvegicus [3] = organism: Rattus norvegicus; assay: Inhibition of carnitine-dependent oxidation of [1-14C]palmitate to 14CO2 in rat liver mitochondria was measured in vitro at 2*10e-3 mM concentration; assay type: functional
Rattus norvegicus [4] = organism: Rattus norvegicus; assay: Inhibition of carnitine-dependent oxidation of [1-14C]palmitate to 14CO2 in rat liver mitochondria was measured in vitro at 2*10e-2 mM concentration; assay type: functional

SMILES	inhibition (Rattus norvegicus [1])	inhibition (Rattus norvegicus [2])	inhibition (Rattus norvegicus [3])	inhibition (Rattus norvegicus [4])
CNC(CC(=O)[O-])C[N+](C)(C)C (stereo not drawn)	89%	100%		
CC(=O)NC(CC(=O)[O-])C[N+](C)(C)C (stereo not drawn)	6%	38%		
COC(=O)NC(CC(=O)[O-])C[N+](C)(C)C (stereo not drawn)	0%	0%		
C[N+](C)(C)C[C@@H](CC(=O)[O-])NC=O	53%	84%		
C[N+](C)(C)CC(CC(=O)[O-])NC(N)=O (stereo not drawn)	84%	72%		
CCOC(=O)CC(N)C[N+](C)(C)C (stereo not drawn)			37%	85%
COC(=O)CC(N)C[N+](C)(C)C (stereo not drawn)			26%	73%
C[N+](C)(C)CC(N)CC(N)=O (stereo not drawn)			10%	27%
CCCCCCCCCCCCCC(=O)NC(CC(=O)[O-])C[N+](C)(C)C (stereo not drawn)			100%	100%
CCCC(=O)NC(CC(=O)[O-])C[N+](C)(C)C (stereo not drawn)		50%		
C[N+](C)(C)CC(CC(=O)[O-])NC(=O)OCc1ccccc1 (stereo not drawn)	85%	98%		
C[N+](C)(C)C[C@H](N)CC(=O)[O-]			59%	90%
Cc1ccc(S(=O)(=O)NC(CC(=O)[O-])C[N+](C)(C)C)cc1 (stereo not drawn)	84%	100%		
CCCCCCCCCCCCCCCC(=O)NC(CC(=O)[O-])C[N+](C)(C)C (stereo not drawn)			100%	100%
CCC(=O)NC(CC(=O)[O-])C[N+](C)(C)C (stereo not drawn)		44%		

From ChEMBL document CHEMBL1123813, “Chemistry and inhibitory activity of long chain fatty acid oxidation of emeriamine and its analogues” (J Med Chem, 1987)
